From patent publication US9801901B2, “Alginate oligomers for use in overcoming multidrug resistance in bacteria” (priority 2009, dated 2017)
In brackets after ≈: the same amount, converted by molar mass. Like-named read-outs stand apart in the source and are kept apart here. Marks after values point to notes of the source that are not given here.

Experiments:
[1] = tested on: V19 non MDR Acinetobacter baumannii; experiment: MIC assay, CAMHB with M-block alginate oligomer, no visible growth; type: cell-based; conditions: Table 7, V19 non MDR Acin. baum
Text: (§1) The study described in Example 1 was repeated with the following strains of Acinetobacter baumannii, antibiotics and M-block alginate oligomer in place of OligoG CF-5/20 as detailed in Table 7. The M-block oligomer is 100% M with a DPn of 15 to 18,

[2] = tested on: V10 (Egypt) Acinetobacter lwoffii; experiment: MIC assay, CAMHB with alginate oligomer, no visible growth; type: cell-based; conditions: Table 5, V10 MDR Acin. lwoff
[3] = tested on: Pseudomonas aeruginosa CFA 24-1, clinical mucoid strain (R80); experiment: as above; type: cell-based; conditions: Pseudomonas aeruginosa, Table 1, R80, read-out: MIC
[4] = tested on: Acinetobacter baumannii MDR ACB from Libya (V4); experiment: as above; type: cell-based; conditions: for MIC: Acinetobacter baumannii, read-out: MIC
Text: The study described in Example 1 was repeated with the following strains of bacteria and antibiotics as detailed in Tables 4, 5 and 6.
as §1

[5] = tested on: Staphylococcus aureus (MRSA) U50; experiment: MIC-assay, Mueller-Hinton broth with G-block alginate, 384-well, OD600 (Table 12); type: cell-based; conditions: MRSA 1040s, U50 MDR
Text: Minimum inhibitory concentration (MICs) of different antibiotics for strains of Streptococcus oralis and Staphylococcus aureus (MRSA) displaying MDR phenotypes in the presence of varying concentrations of OligoCF-5/20 (0-10%). (MIC values are expressed in μg ml^−1).

[6] = tested on: Klebsiella pneumoniae KP05 506 from India (V3); experiment: MIC assay, CAMHB with alginate oligomer, no visible growth; type: cell-based; conditions: for MIC: Klebsiella pneumoniae, Table 1, V3 KP05 506, read-out: MIC
[7] = tested on: V23 1322 Burkholderia cepacia; experiment: as above; type: cell-based
[8] = tested on: Pseudomonas aeruginosa (R22, PSA, V1); experiment: MIC-assay, Mueller-Hinton broth with G-block alginate, 384-well, OD600
[9] = tested on: Acinetobacter baumannii (MDR ACB, Libya, V4); experiment: as above
MDR Pseudomonas strains = experiment: MIC assay of Example 1, summary over the MDR Pseudomonas strains; type: cell-based, Pseudomonas aeruginosa

C[C@H]1[C@H](NC(=O)/C(=N\OC(C)(C)C(=O)O)c2csc(N)n2)C(=O)N1S(=O)(=O)O [Aztreonam]
MIC ([1]; M-block oligomer 0M): 64 µg/mL (≈ 147 µM) | MIC ([1]; M-block oligomer +2% M): 32 µg/mL (≈ 73.5 µM) | MIC ([1]; M-block oligomer +6% M): 8 µg/mL (≈ 18.4 µM) | MIC ([1]; M-block oligomer +10% M): 8 µg/mL (≈ 18.4 µM) | MIC ([2]; Acinetobacter lwoffii, OligoCF-5/20 0G, read-out: MIC): 32 µg/mL (≈ 73.5 µM) | MIC ([2]; OligoCF-5/20 +2% G): 16^† μg/ml | MIC ([2]; OligoCF-5/20 +6% G): 4^† μg/ml | MIC ([2]; OligoCF-5/20 +10% G): 1^† μg/ml | MIC ([3]; OligoCF-5/20 0G): < 1 µg/mL | MIC ([3]; OligoCF-5/20 +2% G): < 1 µg/mL | MIC ([3]; OligoCF-5/20 +6% G): < 1 µg/mL | MIC ([3]; OligoCF-5/20 +10% G): < 1 µg/mL | MIC ([4]; Table 1, V4 ACB (Libya), OligoCF-5/20 0G): 1020 µg/mL (≈ 2350 µM) | MIC ([4]; Table 1, V4 ACB (Libya), OligoCF-5/20 +2% G): 512 µg/mL (≈ 1180 µM) | MIC ([4]; Table 1, V4 ACB (Libya), OligoCF-5/20 +6% G): 256 µg/mL (≈ 588 µM) | MIC ([4]; Table 1, V4 ACB (Libya), OligoCF-5/20 +10% G): 128 µg/mL (≈ 294 µM) | MIC ([4]; Table 7, V4 MDR Acin baum (Libya), M-block oligomer 0M): 2050 µg/mL (≈ 4700 µM) | MIC ([4]; Table 7, V4 MDR Acin baum (Libya), M-block oligomer +2% M): 512 µg/mL (≈ 1180 µM) | MIC ([4]; Table 7, V4 MDR Acin baum (Libya), M-block oligomer +6% M): 256 µg/mL (≈ 588 µM) | MIC ([4]; Table 7, V4 MDR Acin baum (Libya), M-block oligomer +10% M): 64 µg/mL (≈ 147 µM) | effect in combination with alginate oligomers ([4]; Example 1, Acinetobacter baumannii isolate): more positive effect | MIC ([5]; G-block (OligoCF-5/20) 0%, read-out: MIC): 1020 µg/mL (≈ 2350 µM) | MIC ([5]; G-block (OligoCF-5/20) 2%, read-out: MIC): 1020 µg/mL (≈ 2350 µM) | MIC ([5]; G-block (OligoCF-5/20) 6%): 512 µg/mL (≈ 1180 µM) | MIC ([5]; G-block (OligoCF-5/20) 10%): 512 µg/mL (≈ 1180 µM) | effectiveness in conjunction with alginate oligomers ([6]; Example 1, KP05 506): more effective | MIC ([6]; OligoCF-5/20 0G): 2050 µg/mL (≈ 4700 µM) | MIC ([6]; OligoCF-5/20 +2% G): 2050 µg/mL (≈ 4700 µM) | MIC ([6]; OligoCF-5/20 +6% G): 512 µg/mL (≈ 1180 µM) | MIC ([6]; OligoCF-5/20 +10% G): 256 µg/mL (≈ 588 µM) | MIC ([7]; Burkholderia cepacia, Table 5, V23 MDR Burk cep, OligoCF-5/20 0G, read-out: MIC): > 512 µg/mL | MIC ([7]; Burkholderia cepacia, Table 6, V23, Experiment 1 (18-03-10), OligoCF-5/20 0G, read-out: MIC): > 4100 µg/mL | MIC ([7]; Burkholderia cepacia, Table 6, V23, Experiment 2 (18-03-10), OligoCF-5/20 0G, read-out: MIC): > 4100 µg/mL | MIC ([7]; Burkholderia cepacia, Table 6, V23, Experiment 3 (19-03-10), OligoCF-5/20 0G, read-out: MIC): > 4100 µg/mL | MIC ([7]; Table 5, V23 MDR Burk cep, OligoCF-5/20 +2% G): >512 µg/mL | MIC ([7]; Table 5, V23 MDR Burk cep, OligoCF-5/20 +6% G): 512^† μg/ml | MIC ([7]; Table 5, V23 MDR Burk cep, OligoCF-5/20 +10% G): 128^† μg/ml | MIC ([7]; Table 6, V23, Experiment 1 (18-03-10), OligoCF-5/20 +2% G): >4096 µg/mL | MIC ([7]; Table 6, V23, Experiment 1 (18-03-10), OligoCF-5/20 +6% G): 1024^† μg/ml | MIC ([7]; Table 6, V23, Experiment 1 (18-03-10), OligoCF-5/20 +10% G): 256^† μg/ml | MIC ([7]; Table 6, V23, Experiment 2 (18-03-10), OligoCF-5/20 +2% G): >4096 µg/mL | MIC ([7]; Table 6, V23, Experiment 2 (18-03-10), OligoCF-5/20 +6% G): 1024^† μg/ml | MIC ([7]; Table 6, V23, Experiment 2 (18-03-10), OligoCF-5/20 +10% G): 512^† μg/ml | MIC ([7]; Table 6, V23, Experiment 3 (19-03-10), OligoCF-5/20 +2% G): >4096 µg/mL | MIC ([7]; Table 6, V23, Experiment 3 (19-03-10), OligoCF-5/20 +6% G): 1024^† μg/ml | MIC ([7]; Table 6, V23, Experiment 3 (19-03-10), OligoCF-5/20 +10% G): 128^† μg/ml | MIC ([8]; Table 8, G-block (OligoCF-5/20) 6%): 0.0625 µg/mL (≈ 0.144 µM) | MIC ([8]; Table 8, G-block (OligoCF-5/20) 10%): 0.0312 µg/mL (≈ 0.0718 µM) | MIC ([9]; Table 9, G-block (OligoCF-5/20) 0%): 4 µg/mL (≈ 9.19 µM) | MIC ([9]; Table 9, G-block (OligoCF-5/20) 2%): 4 µg/mL (≈ 9.19 µM) | MIC ([9]; Table 9, G-block (OligoCF-5/20) 6%): 1 µg/mL (≈ 2.3 µM) | MIC ([9]; Table 9, G-block (OligoCF-5/20) 10%): 0.5 µg/mL (≈ 1.15 µM) | effectiveness when used in combination with the alginate oligomers (MDR Pseudomonas strains): more effective
